Experimental data taken from PubChem BioAssay AID1963975 (Molecular Pharmacology Branch, DTP, NCI, 2024).

Tested on: 624824-186-R-J2-PDC multicell spheroids, viability
Assay: Anticancer human tumor 624824-186-R-J2-PDC patient-derived colon adenocarcinoma cell line growth inhibition [PI3K]
Details: for IC50: curve of first compound; for viability, T/C: stronger effect = lower value
Outline: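 Spheroid viability read-out. Co-cultures contained the tumor line plus HUVEC and human MSCs. Each agent was paired with a PI3K inhibitor (inavolisib, alpelisib, duvelisib, copanlisib) across half-log dilutions starting at clinical Cmax, or at 10 microM when Cmax was unknown.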

[1] = second compound 0.0316 µM, first compound 0.0316 µM
[2] = second compound 0.0316 µM, first compound 0.1 µM
[3] = second compound 0.0316 µM, first compound 0.316 µM
[4] = second compound 0.0316 µM, first compound 1 µM
[5] = second compound 0.0316 µM, first compound 3.16 µM
[6] = second compound 0.0316 µM, first compound 10 µM
[7] = second compound 0.1 µM, first compound 0.0316 µM
[8] = second compound 0.1 µM, first compound 0.1 µM
[9] = second compound 0.1 µM, first compound 0.316 µM
[10] = second compound 0.1 µM, first compound 1 µM
[11] = second compound 0.1 µM, first compound 3.16 µM
[12] = second compound 0.1 µM, first compound 10 µM
[13] = second compound 0.316 µM, first compound 0.0316 µM
[14] = second compound 0.316 µM, first compound 0.1 µM
[15] = second compound 0.316 µM, first compound 0.316 µM
[16] = second compound 0.316 µM, first compound 1 µM
[17] = second compound 0.316 µM, first compound 3.16 µM
[18] = second compound 0.316 µM, first compound 10 µM
[19] = second compound 1 µM, first compound 0.0316 µM
[20] = second compound 1 µM, first compound 0.1 µM
[21] = second compound 1 µM, first compound 0.316 µM
[22] = second compound 1 µM, first compound 1 µM
[23] = second compound 1 µM, first compound 3.16 µM
[24] = second compound 1 µM, first compound 10 µM
[25] = second compound 3.16 µM, first compound 0.0316 µM
[26] = second compound 3.16 µM, first compound 0.1 µM
[27] = second compound 3.16 µM, first compound 0.316 µM
[28] = second compound 3.16 µM, first compound 1 µM
[29] = second compound 3.16 µM, first compound 3.16 µM
[30] = second compound 3.16 µM, first compound 10 µM
[31] = second compound 10 µM, first compound 0.0316 µM
[32] = second compound 10 µM, first compound 0.1 µM
[33] = second compound 10 µM, first compound 0.316 µM
[34] = second compound 10 µM, first compound 1 µM
[35] = second compound 10 µM, first compound 3.16 µM
[36] = second compound 10 µM, first compound 10 µM
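Also: spheroids exposed to agents for 7 days before viability read.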
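For viability, T/C in this document: 100% = DMSO vehicle treated spheroids.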

Which IC50 (second compound 0.0316 µM) does the source give for `CC1(C)CCC(CN2CCN(c3ccc(C(=O)NS(=O)(=O)c4ccc(NCC5CCOCC5)c([N+](=O)[O-])c4)c(Oc4cnc5[nH]ccc5c4)c3)CC2)=C(c2ccc(Cl)cc2)C1` + Cc1nc(NC(=O)N2CCCC2C(N)=O)sc1-c1ccnc(C(C)(C)C(F)(F)F)c1 here?
Its IC50 is greater than 10 µM.

What about the IC50 (second compound 0.1 µM) of the same compound?
Its IC50 is greater than 10 µM.

And the IC50 (second compound 0.316 µM)?
The IC50 was greater than 10 µM.

And the IC50 (second compound 1 µM)?
Its IC50 is greater than 10 µM.

And the IC50 (second compound 3.16 µM)?
The IC50 was greater than 10 µM.

What about the IC50 (second compound 10 µM) of the same compound?
Its IC50 is 6.9 µM.

What about the viability, T/C [1] of the same compound?
The viability, T/C was 103%.

And the viability, T/C [2]?
Its viability, T/C is 93.7%.

And the viability, T/C [3]?
Its viability, T/C is 95.9%.

And the viability, T/C [4]?
The viability, T/C was 68.5%.

And the viability, T/C [5]?
The viability, T/C was 70.9%.

What about the viability, T/C [6] of the same compound?
The viability, T/C was 67.1%.

What about the viability, T/C [7] of the same compound?
The viability, T/C was 84.3%.

And the viability, T/C [8]?
The viability, T/C was 88.3%.

And the viability, T/C [9]?
Its viability, T/C is 88.2%.

And the viability, T/C [10]?
Its viability, T/C is 80.8%.

And the viability, T/C [11]?
The viability, T/C was 84.1%.

And the viability, T/C [12]?
Its viability, T/C is 51.7%.

And the viability, T/C [13]?
Its viability, T/C is 82.9%.

And the viability, T/C [14]?
Its viability, T/C is 86.9%.

What about the viability, T/C [15] of the same compound?
Its viability, T/C is 75.6%.

And the viability, T/C [16]?
Its viability, T/C is 72.1%.

What about the viability, T/C [17] of the same compound?
The viability, T/C was 67.1%.

And the viability, T/C [18]?
Its viability, T/C is 67.5%.

What about the viability, T/C [19] of the same compound?
Its viability, T/C is 91.3%.

What about the viability, T/C [20] of the same compound?
Its viability, T/C is 78.9%.

What about the viability, T/C [21] of the same compound?
Its viability, T/C is 79.6%.

And the viability, T/C [22]?
The viability, T/C was 80.3%.

What about the viability, T/C [23] of the same compound?
Its viability, T/C is 100%.

What about the viability, T/C [24] of the same compound?
The viability, T/C was 77.3%.

And the viability, T/C [25]?
The viability, T/C was 68.1%.

What about the viability, T/C [26] of the same compound?
Its viability, T/C is 76.9%.

And the viability, T/C [27]?
The viability, T/C was 80.3%.

What about the viability, T/C [28] of the same compound?
The viability, T/C was 94.7%.

And the viability, T/C [29]?
The viability, T/C was 83.6%.

And the viability, T/C [30]?
Its viability, T/C is 50.4%.

And the viability, T/C [31]?
Its viability, T/C is 73%.

What about the viability, T/C [32] of the same compound?
The viability, T/C was 79.4%.

And the viability, T/C [33]?
The viability, T/C was 68.5%.

And the viability, T/C [34]?
The viability, T/C was 74.3%.

And the viability, T/C [35]?
The viability, T/C was 82.6%.

And the viability, T/C [36]?
The viability, T/C was 37.9%.

For `CCCS(=O)(=O)Nc1ccc(F)c(C(=O)c2c[nH]c3ncc(-c4ccc(Cl)cc4)cc23)c1F` + Cc1nc(NC(=O)N2CCCC2C(N)=O)sc1-c1ccnc(C(C)(C)C(F)(F)F)c1, which IC50 (second compound 0.0316 µM) is on record?
Its IC50 is greater than 10 µM.

And the IC50 (second compound 0.1 µM)?
Its IC50 is 7.11 µM.

And the IC50 (second compound 0.316 µM)?
Its IC50 is 6.6 µM.

And the IC50 (second compound 1 µM)?
The IC50 was 5.13 µM.

And the IC50 (second compound 3.16 µM)?
The IC50 was 1.04 µM.

What about the IC50 (second compound 10 µM) of the same compound?
Its IC50 is 0.455 µM.

What about the viability, T/C [1] of the same compound?
Its viability, T/C is 68%.

And the viability, T/C [2]?
Its viability, T/C is 77.2%.

What about the viability, T/C [3] of the same compound?
Its viability, T/C is 61.6%.

And the viability, T/C [4]?
The viability, T/C was 76.8%.

And the viability, T/C [5]?
The viability, T/C was 87.3%.

And the viability, T/C [6]?
Its viability, T/C is 42.2%.

What about the viability, T/C [7] of the same compound?
Its viability, T/C is 84%.

And the viability, T/C [8]?
Its viability, T/C is 64.8%.

What about the viability, T/C [9] of the same compound?
The viability, T/C was 61.2%.

What about the viability, T/C [10] of the same compound?
Its viability, T/C is 91.9%.

What about the viability, T/C [11] of the same compound?
The viability, T/C was 96.5%.

And the viability, T/C [12]?
The viability, T/C was 37.7%.

And the viability, T/C [13]?
The viability, T/C was 72.3%.

What about the viability, T/C [14] of the same compound?
Its viability, T/C is 72.7%.

What about the viability, T/C [15] of the same compound?
The viability, T/C was 53.8%.

And the viability, T/C [16]?
Its viability, T/C is 73.1%.

What about the viability, T/C [17] of the same compound?
Its viability, T/C is 78.1%.

And the viability, T/C [18]?
Its viability, T/C is 38.9%.

What about the viability, T/C [19] of the same compound?
The viability, T/C was 74.6%.

What about the viability, T/C [20] of the same compound?
The viability, T/C was 50.7%.

What about the viability, T/C [21] of the same compound?
Its viability, T/C is 54.4%.

And the viability, T/C [22]?
The viability, T/C was 65.6%.

And the viability, T/C [23]?
The viability, T/C was 75.9%.

What about the viability, T/C [24] of the same compound?
The viability, T/C was 30.4%.

And the viability, T/C [25]?
Its viability, T/C is 79.6%.

And the viability, T/C [26]?
The viability, T/C was 60.6%.

And the viability, T/C [27]?
Its viability, T/C is 56.4%.

And the viability, T/C [28]?
The viability, T/C was 51.7%.

What about the viability, T/C [29] of the same compound?
Its viability, T/C is 52%.

What about the viability, T/C [30] of the same compound?
The viability, T/C was 23.2%.

And the viability, T/C [31]?
Its viability, T/C is 58.7%.

What about the viability, T/C [32] of the same compound?
Its viability, T/C is 50%.

And the viability, T/C [33]?
Its viability, T/C is 49.9%.

What about the viability, T/C [34] of the same compound?
The viability, T/C was 45.1%.

And the viability, T/C [35]?
Its viability, T/C is 41.1%.

And the viability, T/C [36]?
The viability, T/C was 19%.

What does the source list for `CNC(=O)c1ccc(N2C(=S)N(c3ccc(C#N)c(C(F)(F)F)c3)C(=O)C2(C)C)cc1F` + Cc1nc(NC(=O)N2CCCC2C(N)=O)sc1-c1ccnc(C(C)(C)C(F)(F)F)c1?
IC50 (second compound 0.0316 µM): > 10 µM; IC50 (second compound 0.1 µM): > 10 µM; IC50 (second compound 0.316 µM): > 10 µM; IC50 (second compound 1 µM): > 10 µM; IC50 (second compound 3.16 µM): > 10 µM; IC50 (second compound 10 µM): > 10 µM; viability, T/C [1]: 87.5%; viability, T/C [2]: 108%; viability, T/C [3]: 102%; viability, T/C [4]: 108%; viability, T/C [5]: 94.1%; viability, T/C [6]: 121%; viability, T/C [7]: 85.6%; viability, T/C [8]: 87.5%; viability, T/C [9]: 78.3%; viability, T/C [10]: 90.6%; viability, T/C [11]: 90.4%; viability, T/C [12]: 114%; viability, T/C [13]: 76.1%; viability, T/C [14]: 86.1%; viability, T/C [15]: 97.8%; viability, T/C [16]: 94.4%; viability, T/C [17]: 81.9%; viability, T/C [18]: 96.2%; viability, T/C [19]: 79.1%; viability, T/C [20]: 78.9%; viability, T/C [21]: 99%; viability, T/C [22]: 96.7%; viability, T/C [23]: 113%; viability, T/C [24]: 90.9%; viability, T/C [25]: 81.3%; viability, T/C [26]: 92.2%; viability, T/C [27]: 89.1%; viability, T/C [28]: 84.7%; viability, T/C [29]: 101%; viability, T/C [30]: 86.4%; viability, T/C [31]: 81.5%; viability, T/C [32]: 74.8%; viability, T/C [33]: 73%; viability, T/C [34]: 73.9%; viability, T/C [35]: 79.1%; viability, T/C [36]: 65%
